Assay results published in US7925520B2, “Methods of predicting dose of drug and program for predicting dose of drug” (priority 2007, dated 2011).
“And” between values parts separate entries of the source, which are not always exact repeats. Equal entries are not always repeated. Where two headings read alike, the source gives them in different places.

Columns and labels:
[1] = Measurement 2: migration C of drug ion under skin-absent condition (through anion exchange membrane into physiological salt solution); format: physicochemical; details: for C (migration of drug ion under skin-absent condition): 6.25 mM drug solution, constant current 0.94 mA for 60 minutes, average of 3; for LogC: log of migration C, 6.25 mM, 0.94 mA, 60 minutes
Description: (§1) In some embodiments, a working side assembly 10 of the device 1 may include a working side electrode (negative electrode) 11; an electrolyte solution holding portion 12 for holding a physiological salt solution; a cation exchange membrane 13 on the front surface side of the electrolyte solution holding portion; a drug solution holding portion 14 for holding a drug solution on the front surface side of the cation exchange membrane 13; and an anion exchange membrane 15 on the front surface side of the drug solution holding portion.
(§2) In some embodiments, a non-working side assembly 20 of the device 1 may include a non-working side electrode (positive electrode) 21; an electrolyte solution holding portion 22 for holding a physiological salt solution; an anion exchange membrane 23 on the front surface side of the electrolyte solution holding portion 22; an electrolyte solution holding portion 24 for holding a physiological salt solution on the front surface side of the anion exchange membrane 23; and a cation exchange membrane 25 on the front surface side of the electrolyte solution holding portion 24. It should be noted that an ion exchange membrane CLE 04-2 manufactured by Tokuyama Co., Ltd. was used as each of the ion exchange membrane 13 and the ion exchange membrane 25, and an ion exchange membrane ALE 04-2 manufactured by Tokuyama Co., Ltd. was used as each of the ion exchange membrane 15 and the ion exchange membrane 23.
The drug solution composition of the drug solution holding portion 14, energization conditions, and the like were identical to those of Measurement 1.
The above measurement was performed 3 times for each sample, and the average value of the measurements was determined as the migration C.

[2] = Prediction of Log(M*/C) from measured C and R by Equation 2; design: species or system rat; details: M* determined as a function of measured C and R values (Eq. 2)
[3] = Measurement 3: migration R of drug ion to liposome; format: physicochemical; details: 20 mM EPC liposome and 3.125 mM drug solution 1:1 by volume; 37° C., 18 hours; average of 3
Protocol: 20 mM of an EPC liposome (yolk phosphatidylcholine (lecithin)/particle diameter 290 to 490 nm) and 3.125 mM of a drug solution were mixed at a volume ratio of 1:1, and the mixture was incubated at 37° C. for 18 hours. After that, the resultant was centrifuged, and the amount of a drug ion in each of the supernatant and the precipitate was measured by HPLC, whereby the amount of the drug ion (unit: nmol/cm^3) that had migrated to the EPC liposome was measured.
The above measurement was performed 3 times for each sample, and the average value of the measurements was determined as the migration R.

[4] = Measurement 1: migration M of drug ion to skin with membrane type iontophoresis device; format: in vitro ADME, rat; details: for LogM: log of migration M, 6.25 mM, 0.94 mA, 60 minutes; for LogM / M (migration of drug ion to skin): rat back skin; for M (migration of drug ion to skin): 6.25 mM drug solution, constant current 0.94 mA for 60 minutes, average of 3
Description: as §1, §2
Energization was performed in a state where a corium layer 32 was brought into contact with the physiological salt solution of the electrolyte solution holding portion 26. After energization, the skin 30 was frozen and processed.
The above measurement was performed 3 times for each sample, and the average value of the measurements was determined as the migration M.

[5] = value from Scifinder database, cited from earlier work; for PSA: in Å2 (unit assumed)

Compound	C (migration of drug ion under skin-absent condition) [1]	LogC [1]	Predicted Log(M*/C) [2]	LogR (migration R of drug ion to liposome) [3]	Log(M/C) ([4]; from measured M and C)	LogM [4]	M (migration of drug ion to skin) [4] [nmol/mL]	LogD [5]	LogP [5]	PSA [5]	Log(M/C) [4]
COc1ccc2c(c1)c(CC(=O)O)c(C)n2C(=O)c1ccc(Cl)cc1 [Indomethacin]	2189 nmol/mL	3.34	−0.49	0.23	−0.87	2.47	296	−0.13	3.11	64	–
CC(C(=O)O)c1cccc(C(=O)c2ccccc2)c1 (centres unmarked) [Ketoprofen]	2432 nmol/mL	3.39	−0.89	−0.29	–	–	–	0.33	–	54	–
CCc1cccc2c3c([nH]c12)C(CC)(CC(=O)O)OCC3 (centres unmarked) [Etodolac]	–	3.41	−0.54	–	−0.93	2.48	–	–	–	–	–
O=C(O)c1ccccc1O [Salicylic acid]	6800 nmol/mL	3.83	−1.04	−0.49	−0.96	2.87	749	−1.08	2.06	58	–
O=C(O)Cc1ccc(-c2ccccc2)cc1 [Felbinac]	3409 nmol/mL	3.53	–	0.27	–	–	–	0.83	3.26	–	–
1-Naphtaleneacetic acid [Napthaleneacetic acid]	4806 nmol/mL	3.68	−1.03	−0.47	–	–	–	–	–	37 and 37.3	−0.8
O=C(O)Cc1c[nH]c2ccccc12 [Indoleacetic acid, 3-Indoleacetic acid]	7822 nmol/mL	3.89	–	−0.69	–	–	–	−1.37	1.43	–	–
O=C(O)CCCc1c[nH]c2ccccc12 [Indolebutylic acid, Indolebutyric acid]	3744 nmol/mL and 3774 nmol/mL	3.58	−0.87	−0.26	–	–	–	–	–	53 and 53.1	−0.74
O=C(O)Cc1ccccc1Nc1c(Cl)cccc1Cl [Diclofenac]	–	2.86	0.1	–	0.3	3.16	–	–	–	–	–
